Data published in publication PMC10845205, “Discovery of novel antibacterial agent for the infected wound treatment: all-hydrocarbon stapling optimization of LL-37” (Theranostics, 2024).
≈ marks a conversion by molar mass, not a printed value. Positions of bridges follow the written chain, without caps; N, C: chain ends. Non-standard residues stand in square brackets, D forms with d. Residues, ends and D or L forms follow the SMILES beside them. S5 = C=CCCC[C@](C)(N)C(=O)O

Legend:
A. baumannii = conditions: CLSI broth microdilution, MH-II broth, 24 h 37 °C, AlamarBlue; ATCC 19606; 3 independent measurements
Protocol: (§1) According to the protocol of Clinical & Laboratory Standards Institute, the minimum inhibitory concentration (MIC) of the linear and stapled peptides against a panel of gram-positive and gram-negative bacteria was determined by the broth microdilution method. […]
(§2) Bacterial strains and culture
(§3) Bacterial type stains ATCC 25923 S. aureus, ATCC 12228 S. epidermidis, ATCC […]
(§4) aeruginosa and ATCC 13883 K. pneumoniae were obtained from Shanghai Bioresource Collection Center. The bacterial culture medium was purchased from Oxoid and autoclaved according to the instructions from manufacturer. The isolated strains were cultured in Mueller Hinton II broth and continuously shaken at 140 rpm for 18 hours to the middle of the exponential growth phase at 37 °C with an OD value of 0.4-0.5.
(§5) Bacterial suspensions with an OD value of 0.1, approximately […], were then diluted for further assays.
(§6) The minimal inhibition concentration (MIC) of the linear and stapled peptides was determined using the microbroth dilution method from the Clinical and Laboratory Standards Institute (CLSI)[2, 3]. Bacterial suspensions of 10 6 CFU/mL were prepared in MH-II broth and peptide solutions at varying concentrations were prepared in phosphate buffer saline (PBS). Then 50 μL peptide solution and 50 μL bacterial suspension were mixed in a 96 -well plate. Plates were incubated for 24 hours at 37 °C.
(§7) 10 μL AlamarBlue cell viability reagent (ThermoFisher Scientific, UK) was added to each well, then the plate was re -incubated for a further 2 hours at 37 °C. The MIC was recorded as the minimum concentration of peptides required to completely in hibit bacteria growth. For serum stability assessment, the peptide solutions were pre - incubated with 50% human serum for 4 h before the MIC determination. Experiments were performed in 3 independent measurements. […]

K. pneumoniae = conditions: CLSI broth microdilution, MH-II broth, 24 h 37 °C, AlamarBlue; ATCC 13883; 3 independent measurements
Protocol: as §1, §2, §3, §4, §5, §6, §7

P. aeruginosa = conditions: CLSI broth microdilution, MH-II broth, 24 h 37 °C, AlamarBlue; ATCC 27853; 3 independent measurements
Protocol: as §1, §2, §3, §4, §5, §6, §7

S. epidermidis = conditions: CLSI broth microdilution, MH-II broth, 24 h 37 °C, AlamarBlue; ATCC 12228; 3 independent measurements
Protocol: as §1, §2, §3, §4, §5, §6, §7

E. faecalis = conditions: CLSI broth microdilution, MH-II broth, 24 h 37 °C, AlamarBlue; ATCC 29212; 3 independent measurements
Protocol: as §1, §2, §3, §4, §5, §6, §7

E. coli = conditions: CLSI broth microdilution, MH-II broth, 24 h 37 °C, AlamarBlue; ATCC 25922; 3 independent measurements
Protocol: as §1, §2, §3, §4, §5, §6, §7

S. aureus = conditions: CLSI broth microdilution, MH-II broth, 10^6 CFU/mL, 24 h 37 °C, AlamarBlue; ATCC 25923; 3 independent measurements
Protocol: as §1, §2, §3, §4, §5, §6, §7

[1] = Hydrophobicity by RP-HPLC retention time; format: physicochemical; conditions: chromatographic, reverse-phase C18 column, CH3CN/H2O containing 0.1%TFA from 10% to 90% over 20 min, UV 220 nm
From the text: To uncover the structure-activity relationship of KR-12 and its stapled derivatives, their physicochemical properties in terms of hydrophobicity, net charge and α-helicity were investigated (Table 2).

Serum stability assay = format: in vitro ADME, human; conditions: human serum, 2 mg/mL peptide in pH 7.4 PBS mixed with serum 1:4, 37 °C, up to 48 h, RP-HPLC UV 220 nm, 3 independent measurements
From the text: Maintaining high stability and presenting high compatibility in the complex physiological environment are important criterions for the clinical translation of AMPs. […] The derivatives were mixed with human serum in pH 7.4 PBS, simulating the degradation process of peptides by proteases in vivo. The percentages of intact derivatives were monitored and determined with time according to the PR-HPLC. […]
Serum stability of the linear and stapled peptides was examined by RP -HPLC as previously described. 2 mg/mL peptide solution was prepared in pH 7.4 PBS and incubated with human serum (Gemini, USA) to the final volume ratio of 1:4 at 37 °C.
At various time intervals, 50 μL mixture was added to 50 μL ethanol to terminate the enzymatic hydrolysis. After centrifugation at 10,000 rpm for 10 minutes under 4 °C, […]
the supernatant was collected and analyzed by RP-HPLC, with a UV detector monitored at 220 nm. Record the peak area of the intact peptide and calculate the percentage of remaining peptide based on the integrated area as, Peptide remaining (%) = peak area of remaining peptide/peak area of intact peptide×100%. […]

## CC[C@H](C)[C@H](NC(=O)[C@H](CCCNC(=N)N)NC(=O)[C@H](CCCCN)NC(C)=O)C(=O)N[C@H](C(=O)N[C@@H](CCC(N)=O)C(=O)N[C@@H](CCCNC(=N)N)C(=O)N[C@H](C(=O)N[C@@]1(C)CCCC=CCCC[C@@](C)(C(N)=O)NC(=O)[C@H](CC(C)C)NC(=O)[C@H](Cc2ccccc2)NC(=O)[C@H](CC(=O)O)NC1=O)[C@@H](C)CC)C(C)C [KR-12 (K8, R12)] (Ac-KRIVQRI[S5]DFL[S5]-NH2; staple 8-12)
A. baumannii
  MIC A. baumannii: 16 µg/mL (≈ 10.1 µM)
K. pneumoniae
  MIC K. pneumoniae: > 256 µg/mL
P. aeruginosa
  MIC P. aeruginosa: 256 µg/mL (≈ 162 µM)
S. epidermidis
  MIC S. epidermidis: 16 µg/mL (≈ 10.1 µM)
E. faecalis
  MIC E. faecalis: 16 µg/mL (≈ 10.1 µM)
E. coli
  MIC E. coli: 64 µg/mL (≈ 40.5 µM)
S. aureus
  MIC S. aureus: 16 µg/mL (≈ 10.1 µM)
[1]
  TR (retention time, measure of hydrophobicity): 18.2 min
Serum stability assay
  TD50 (time at which 50% of the peptide is degraded in the presence of serum): 18.28 h
